Data on 19 compounds can be found in US9834563B2 (Merck Sharp & Dohme Corp., priority 2013, dated 2017).

Structures are written as SMILES.

What is called EC50 is the concentration at which the effect is half-maximal.

The target in assay [1] is T1, Human GPR40 (Homo sapiens, UniProt O14842). As to the kind of experiment: FLIPR assay: agonist-induced calcium mobilization in GPR40/CHO NFAT BLA cells. In kind it is cell-based. Further details: expressed in transfected cells; host or cells: CHO cells stably expressing NFAT BLA (beta-lactamase). An excerpt: (§1) Human and mouse GPR40 stable cell-lines were generated in CHO cells stably expressing NFAT BLA (Beta-lactamase). A human GPR40 stable cell-line was generated in HEK cells stably expressing the aequorin expressing reporter. The expression plasmids were transfected using lipofectamine, LIFE TECHNOLOGIES (Carlsbad, Calif.), following manufacturer's instructions. Stable cell-lines were generated following drug selection.
T1 sequence (O14842 whole entry): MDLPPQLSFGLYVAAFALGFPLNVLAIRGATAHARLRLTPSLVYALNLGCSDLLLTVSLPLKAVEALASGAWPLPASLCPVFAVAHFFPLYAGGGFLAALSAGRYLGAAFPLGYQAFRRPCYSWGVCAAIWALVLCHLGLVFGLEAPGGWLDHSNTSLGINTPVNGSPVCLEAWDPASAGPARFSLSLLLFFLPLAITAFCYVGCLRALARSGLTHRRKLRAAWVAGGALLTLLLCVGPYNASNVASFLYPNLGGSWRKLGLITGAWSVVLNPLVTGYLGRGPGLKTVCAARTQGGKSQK
FLIPR (Fluorimetric Imaging Plate Reader, Molecular Devices) assays were performed to measure agonist-induced calcium mobilization of the stable clones. For the FLIPR assay, one day before assay, GPR40/CHO NFAT BLA cells were seeded into black-wall-clear-bottom 384-well plates (Costar) at 1.4×10e4 cells/20 μL medium/well. The cells were incubated with 20 μl/well of the assay buffer (HBSS, 0.1% BSA, 20 mM HEPES, 2.5 mM probenecid, pH 7.4) containing 8 μM fluo-4, AM, 0.08% pluronic acid at room temperature for 100 minutes. Fluorescence output was measured using FLIPR. Compounds were dissolved in DMSO and diluted to desired concentrations with assay buffer. 13.3 μL/well of compound solution was added. The activities of the compounds in the examples have EC50 (effective concentration of compound to afford 50% of the maximum observed fluorescence) values listed in Table I.

In assay [2] the target is T1, Human GPR40. Kind of assay: Inositol phosphate turnover (IP1) assay in HEK cells stably expressing human GPR40. In kind it is cell-based. Further details: expressed in transfected cells. Particulars: HEK cells stably expressing human GPR40, 3H-inositol labeling, 60 min compound incubation. How it is done: as §1
The assay is performed in a 96-well format. HEK cells stably expressing human GPR40 are plated to be 60-80% confluent within 72 h. After 72 h, the plates are aspirated and the cells washed with inositol-free DMEM (ICN). The wash media is replaced with 150 μL of 3H-inositol labeling media (inositol-free media containing 0.4% human albumin or 0.4% mouse albumin, 1× pen/strep antibiotics, glutamine, 25 mM HEPES to which is added 3H-myo-inositol NEN #NET114A 1 mCi/mL, 25 Ci/mmol diluted 1:150 in loading media with a final specific radioactivity of 1 μCi/150 μL). Alternatively, the human and mouse albumin can be added after the overnight labeling step before the addition of LiCl.
The assay is typically run the next day after 18 h labeling. On the day of the assay, 5 μL of 300 mM LiCl is added to all wells and incubated at 37 degrees for 20 min. 0.75 μL of 200× compounds are added and incubated with the cells for 60 min at 37 degrees. The media is then aspirated off and the assay terminated with the addition of 60 μL 10 mM formic acid. The cells are lysed for 60 min at room temperature. 15-30 μL of lysate is mixed with 70 μL/1 mg YSi SPA beads AMERSHAM (United Kingdom) in clear bottom Isoplates. The plates are shaken for 2 h at room temperature. Beads are allowed to settle and the plates are counted in the Wallac MICROBETA instrument. The activities of the compounds in the examples have EC50 (effective concentration of compound to afford 50% of the maximum observed […]) values listed in Table I.

Regarding `Cc1cc(NCCCS(C)(=O)=O)ncc1-c1cccc(COc2ccc3c(c2)C[C@H]2[C@H](C(=O)O)[C@@H]32)c1C` [Example 16, 4-{3-[6-(3-Methanesulfonyl-propylamino)-4-methyl-pyridin-3-yl]-2-methyl-benzyloxy}-1,1a,6,6a-tetrahydro-cyclopropa[a]indene-1-carboxylic acid], on Human GPR40 [1], the EC50 turned out to be 4280 nM.

As for `O=C(O)[C@H]1[C@@H]2Cc3cc(OCc4cc(-c5cnc6[nH]ccc6c5)ccc4F)ccc3[C@@H]21` [Example 24, (1S,1aS,6aR)-4-((2-fluoro-5-(1H-pyrrolo[2,3-b]pyridin-5-yl)benzyl)oxy)-1,1a,6,6a-tetrahydrocyclopropa[a]indene-1-carboxylic acid], the values for the EC50 at Human GPR40 [2] and at Human GPR40 [1] were 304 nM and 73.3 nM, respectively. In the same order, the values of `Cc1nc(N2CCC(C(F)(F)F)CC2)ccc1-c1ccc(F)c(COc2ccc3c(c2)C[C@H]2[C@H](C(=O)O)[C@@H]32)c1` [Example 42, (1S,1aS,6aR)-4-((2-fluoro-5-(2-methyl-6-(4-(trifluoromethyl)piperidin-1-yl)pyridin-3-yl)benzyl)oxy)-1,1a,6,6a-tetrahydrocyclopropa[a]indene-1-carboxylic acid] are 51 nM and 12.8 nM. The matching figures for `Cc1nc(OCCCS(C)(=O)=O)ccc1-c1ccc(F)c(COc2ccc3c(c2)C[C@H]2[C@H](C(=O)O)[C@@H]32)c1F` [Example 20, 4-(2,6-Difluoro-3-[6-(3-methanesulfonyl-propoxy)-2-methyl-pyridin-3-yl]-benzyloxy)-1,1a,6,6a-tetrahydro-cyclopropa[a]indene-1-carboxylic acid]: 51.5 nM and 179 nM.

For the compound `Cc1nc(N2[C@@H]3CC[C@H]2CC(O)C3)ccc1-c1ccc(F)c(COc2ccc3c(c2)C[C@H]2[C@H](C(=O)O)[C@@H]32)c1` (stereo partly drawn) [Example 39, (1S,1aS,6aR)-4-((2-fluoro-5-(6-((1R,5S)-3-hydroxy-8-azabicyclo[3.2.1]octan-8-yl)-2-methylpyridin-3-yl)benzyl)oxy)-1,1a,6,6a-tetrahydrocyclopropa[a]indene-1-carboxylic acid], the EC50 at Human GPR40 [2] is 26 nM; on Human GPR40 [1] it was 47.6 nM. `Cc1cc(OC2CCS(=O)(=O)CC2)ncc1-c1ccc(F)c(COc2ccc3c(c2)C[C@H]2[C@H](C(=O)O)[C@@H]32)c1` [Example 10, 4-{5-[6-(1,1-Dioxo-hexahydro-l16-thiopyran-4-yloxy)-4-methyl-pyridin-3-yl]-2-fluoro-benzyloxy}-1,1a,6,6a-tetrahydro-cyclopropa[a]indene-1-carboxylic acid]: the EC50 on Human GPR40 [1] came to 93.1 nM. As to `Cc1cc(OCCC2(O)COC2)ncc1-c1ccc(F)c(COc2ccc3c(c2)C[C@H]2[C@H](C(=O)O)[C@@H]32)c1` [Example 30, (1S,1aS,6aR)-4-((2-fluoro-5-(6-(2-(3-hydroxyoxetan-3-yl)ethoxy)-4-methylpyridin-3-yl)benzyl)oxy)-1,1a,6,6a-tetrahydro-cyclopropa[a]indene-1-carboxylic acid], the figures for the EC50 at Human GPR40 [2] and on Human GPR40 [1] were 30 nM and 49.2 nM, respectively. With `Cc1cc(NCCCS(C)(=O)=O)ncc1-c1cccc(COc2ccc3c(c2)C[C@H]2[C@H](C(=O)O)[C@@H]32)c1` [Example 15, 4-{3-[6-(3-Methanesulfonyl-propylamino)-4-methyl-pyridin-3-yl]-benzyloxy}-1,1a,6,6a-tetrahydro-cyclopropa[a]indene-1-carboxylic acid], the EC50 at Human GPR40 [1] stood at 317 nM. On the same count and under the same terms, the same measure for `Cc1cc(OC2CCS(=O)(=O)CC2)nc(C)c1-c1ccc(F)c(COc2ccc3c(c2)C[C@H]2[C@H](C(=O)O)[C@@H]32)c1` [Example 9, 4-{5-[6-(1,1-Dioxo-hexahydro-l16-thiopyran-4-yloxy)-2,4-dimethyl-pyridin-3-yl]-2-fluoro-benzyloxy}-1,1a,6,6a-tetrahydro-cyclopropa[a]indene-1-carboxylic acid]: 99 nM; for `Cc1cc(OCCCS(C)(=O)=O)nc(C)c1-c1ccc(F)c(COc2ccc3c(c2)C[C@H]2[C@H](C(=O)O)[C@@H]32)c1F` [Example 21, 4-(2,6-difluoro-3-[6-(3-methanesulfonyl-propoxy)-2,4-dimethyl-pyridin-3-yl]-benzyloxy)-1,1a,6,6a-tetrahydro-cyclopropa[a]indene-1-carboxylic acid]: 47.4 nM. The same measure, in the same setting: the same measure for `Cc1cc(OCCCS(C)(=O)=O)ncc1-c1ccc(F)c(COc2ccc3c(c2)C[C@H]2[C@H](C(=O)O)[C@@H]32)c1` [Example 19, (1S,1aS,6aR)-4-[(2-fluoro-5-{4-methyl-6-[3-(methylsulfonyl)propoxy]pyridin-3-yl}benzyl)oxy]-1,1a,6,6a-tetrahydrocyclopropa[a]indene-1-carboxylic acid]: 5.5 nM; for `Cc1cc(OCCCS(C)(=O)=O)ncc1-c1ccc(F)c(COc2ccc3c(c2)C[C@H]2[C@H](C(=O)O)[C@@H]32)c1F` [Example 22, 4-(2,6-difluoro-3-[6-(3-methanesulfonyl-propoxy)-4-methyl-pyridin-3-yl]-benzyloxy)-1,1a,6,6a-tetrahydro-cyclopropa[a]indene-1-carboxylic acid]: 58.9 nM. The same measure, in the same setting: as for `Cc1nc(OC2CCS(=O)(=O)CC2)ccc1-c1cccc(COc2ccc3c(c2)C[C@H]2[C@H](C(=O)O)[C@@H]32)c1C` [Example 17, 4-{3-[6-(1,1-Dioxo-hexahydro-l16-thiopyran-4-yloxy)-2-methyl-pyridin-3-yl]-2-methyl-benzyloxy}-1,1a,6,6a-tetrahydro-cyclopropa[a]indene-1-carboxylic acid], the figure is 252 nM; as for `Cc1nc(N2CCC(S(C)(=O)=O)CC2)ccc1-c1cccc(COc2ccc3c(c2)C[C@H]2[C@H](C(=O)O)[C@@H]32)c1` [Example 3, (1S,1aS,6aR)-4-((3-(2-Methyl-6-(4-(methylsulfonyl)piperidin-1-yl)pyridin-3-yl)benzyl)oxy)-1,1a,6,6a-tetrahydrocyclopropa[a]indene-1-carboxylic acid], 59.9 nM.

Take `Cc1cc(OC2CCS(=O)(=O)CC2)nc(C)c1-c1cccc(COc2ccc3c(c2)C[C@H]2[C@H](C(=O)O)[C@@H]32)c1` [Example 13, 4-{3-[6-(1,1-Dioxo-hexahydro-l16-thiopyran-4-yloxy)-2,4-dimethyl-pyridin-3-yl]-benzyloxy}-1,1a,6,6a-tetrahydro-cyclopropa[a]indene-1-carboxylic acid]: the EC50 on Human GPR40 [1] came to 102 nM. Consider `Cc1cc(OCCCS(C)(=O)=O)ncc1-c1cccc(COc2ccc3c(c2)C[C@H]2[C@H](C(=O)O)[C@@H]32)c1C` [Example 8, 4-{3-[6-(3-Methanesulfonyl-propoxy)-4-methyl-pyridin-3-yl]-2-methyl-benzyloxy}-1,1a,6,6a-tetrahydro-cyclopropa[a]indene-1-carboxylic acid], for which the EC50 at Human GPR40 [1] stood at 232 nM. Same read-out and setting: as for `CS(=O)(=O)CCCOc1ccc(-c2cccc(COc3ccc4c(c3)C[C@H]3[C@H](C(=O)O)[C@@H]43)c2)c(CO)n1` [Example 18, 4-{3-[2-Hydroxymethyl-6-(3-methanesulfonyl-propoxy)-pyridin-3-yl]-benzyloxy}-1,1a,6,6a-tetrahydro-cyclopropa[a]indene-1-carboxylic acid], the figure is 206 nM; as for `Cc1nc(NCCCS(C)(=O)=O)ccc1-c1cccc(COc2ccc3c(c2)C[C@H]2[C@H](C(=O)O)[C@@H]32)c1` [Example 12, 4-{3-[6-(3-Methanesulfonyl-propylamino)-2-methyl-pyridin-3-yl]-benzyloxy}-1,1a,6,6a-tetrahydro-cyclopropa[a]indene-1-carboxylic acid], 123 nM; as for `Cc1cc(OCCCS(C)(=O)=O)nc(C)c1-c1cccc(COc2ccc3c(c2)C[C@H]2[C@H](C(=O)O)[C@@H]32)c1C` [Example 7, 4-{3-[6-(3-Methane-sulfonyl-propoxy)-2,4-dimethyl-pyridin-3-yl]-2-methyl-benzyloxy}-1,1a,6,6a-tetrahydro-cyclopropa[a]indene-1-carboxylic acid], 98 nM.
